A short description of data set [1]: Velagliflozin plasma levels after single i.v. dosing in lactating cows. It counts as in vivo, Holstein-Frisian cows. The note with it: i.v. 0.03, 0.3, 3 mg/kg bodyweight, n=4 lactating cows; FIG. 1. As to the method:
(§1) Velagliflozin treatment is tested in n=4 lactating Holstein-Frisian cows. In weekly intervals, velagliflozin is administered intravenously (i.v.) in increasing doses (0.03 mg/kg bodyweight-0.3 mg/kg bodyweight-3 mg/kg bodyweight) in the morning after AM (ante meridian) milking into the right jugular vein in a volume of 2.5 ml of a propylene glycol based solution per 100 kg body weight. Blood samples for determination of velagliflozin plasma levels and urine samples for determination of glucose and creatinine levels are collected one day prior to treatment and ˜8 hours, ˜24 hours and ˜48 hours post treatment and stored frozen until being analysed. Blood glucose and ketone body (beta-hydroxy-butyrate) concentrations are determined immediately after blood collection at the same time points. The total urinary creatinine excreted per day is rather constant in mammals, thus, since urine volume was not determined, the glucose to creatinine ratio was calculated as a surrogate of the total glucose excretion. All animals are milked twice daily, in the morning (ante meridian—AM) and in the late afternoon (post meridian—PM). Throughout the study, milk yield is recorded as kg per animal per milking.

Data set [2] deals with lactating Holstein-Frisian cows. Put plainly: Urinary glucose excretion normalized to urinary creatinine after single i.v. dosing in lactating cows. It counts as in vivo. Conditions: i.v. 0.03, 0.3, 3 mg/kg bodyweight; urine ~8 h, ~24 h, ~48 h post treatment; FIG. 1. As for the experimental part:
as §1

For data set [3] the test system is unchanged. Put plainly: Milk yield per milking after single i.v. dosing in lactating cows. The note with it: i.v. 0.03, 0.3, 3 mg/kg bodyweight after AM milking; PM milking about 8 hours after administration; FIG. 2. It counts as in vivo. As for the experimental part:
as §1

Data set [4] is described as follows: Blood glucose and ketone body (beta-hydroxy-butyrate) concentrations after treatment in lactating cows. In kind it is in vivo, Holstein-Frisian cows. The note with it: after treatment with all dosages (0.03, 0.3, 3 mg/kg bodyweight i.v.). As for the experimental part: as §1

In the case of `N#Cc1ccc([C@@H]2O[C@H](CO)[C@@H](O)[C@H](O)[C@H]2O)cc1Cc1ccc(C2CC2)cc1` [velagliflozin, Velagliflozin], the Velagliflozin plasma level entry in data set [1] was “linear dose to exposure relationship”. For the same compound, the “urinary glucose excretion normalized to urinary creatinine” value in data set [2] was “increases in a dose/exposure dependent manner”. Moreover, the “milk yield of the subsequent milking (PM)” value in data set [3] is “decreases in a dose/exposure dependent manner”. The blood glucose level entry in data set [4] is listed as “within normal reference ranges”. Also, the ketone body level result in data set [4] (beta-hydroxy-butyrate) is listed as “within normal reference ranges”.
